Consider seven substances from patent US20100075907A1, “NEUROMEDIN U RECEPTOR AGONISTS AND USES THEREOF” (priority 2006, published 2010).

One series deals with diet-induced obese mice. The experiment in a line: Feeding study in diet-induced obese mice (food intake, body weight). Format: in vivo. The note with it: for % Food intake (FI) reductions Day 1: Day 1, based on vehicle responses; for % Food intake (FI) reductions Day 2: Day 2, based on vehicle responses; for % Food intake (FI) reductions Day 3: Day 3, based on vehicle responses; for anorectic effect: acute administration; for body weight / duration of reductions in food intake: single acute subcutaneous administration. An excerpt: NMUR1 knockout (Nmur1−/−) mice were generated using standard homologous recombination techniques. Nmur1 mice were subsequently transferred to Taconic Farms where they were either maintained on a 75% C57BL/6×25% 129S6/SvEv mixed genetic background or backcrossed six generations to C57BL/6. NMUR2 knockout (Nmur2−/−) mice were licensed from Deltagen Inc., San Mateo, Calif. and subsequently transferred to Taconic Farms where they were either maintained on a 75% C57BL/6×25% 129/OlaHsd mixed genetic background or backcrossed for seven generations to C57BL/6. NMUR1 and NMUR2 double knockout (Nmur1&2−/−) mice were generated by crossing N6 Nmur1−/− mice to N7 Nmur2−/− mice. Mice were individually housed in Tecniplast cages in a conventional SPF facility. Mice were initially maintained on a regular chow diet and then early in their life were switched to a high fat diet (D12492: 60% kcal from fat; Research Diets, Inc., New Brunswick, N.J.) with ad libitum access to water in a 12-hour light/12-hour dark cycle.
Ad libitum fed male diet-induced obese mice were weighed and dosed either i.p. or s.c. about 30 minutes prior to the onset of the dark phase of the light cycle and provided with a preweighed aliquot of high fat diet D12492 which was then weighed 2 hours and 18 hours (day 1), 42 hours (day 2), 66 hours (day 3), and 90 hours (day 4) after the onset of the initial dark phase. Mice were weighed at the 18, 42, 66 and 90 hour time points.

Series [1] can be described thus: Pharmacokinetic analysis using the FLIPR bioassay. Conditions: mice, 10 mg/kg subcutaneously, compared with hNMU-25. Type of series: in vivo. On the procedure:
Neuromedin U receptor agonist NMU12 exposure levels in dosed animals were measured using the bioassay and compared with hNMU-25 exposure levels. Animals were dosed subcutaneously with 10 mg/kg NMU12 or hNMU-25 and plasma was collected at various time points post-dose. The bioassay was a FLIPR-based assay, which was performed essentially as described above with the following modifications. Sample preparation prior to the assay was performed on ice to minimize degradation of plasma samples. The assay was run with 4% plasma as the final concentration. A three-point titration was done with the dosed plasma and tested on human NMUR1-expressing cell lines using FLIPR. The response after sample addition was taken as the maximum fluorescence units minus the fluorescence immediately prior to stimulation for each well. In addition to a three-point titration of dosed plasma samples, a 16-point titration of the peptide (hNMU-25 or NMU12) was run in 4% plasma (naive plasma) to serve as the standard. The concentration of the peptide in plasma was calculated based on extrapolations from the appropriate standard using the GraphPad Prism software.

Another series deals with hNMUR2 (Homo sapiens, UniProt Q9GZQ4). The experiment in a line: FLIPR calcium mobilization assay, human NMUR2. Format: cell-based. Also noted: expressed in transfected cells; host or cells: FLP-In CHO or HEK-293 FLP-In cells (pcDNA5); HEK-293/aeq17 lines (pcDNA3.1) were also made. Conditions: human NMUR2. An excerpt: (§1) Human, mouse or rat cDNAs encoding NMUR1 or NMUR2 (as described in Howard et al. Nature 406: 70-74 (2000) were subcloned in pcDNA5 (Invitrogen) and transfected into FLP-In CHO cells and HEK-293 FLP-In cells purchased from Invitrogen (Carlsbad, Calif.) using lipofectamine (Invitrogen). The Flp-In system allows integration and expression of a particular gene of interest at a specific genomic location utilizing the Flp recombinase from yeast. The transfected cells were selected by growth in medium containing 200 μg/mL hygromycin (Invitrogen). Populations were frozen at early passage numbers, and these stocks were used for further studies. Stable clones that expressed the mRNAs were identified functionally by FLIPR as well as by RT-PCR. […] Two different rodent NMUR1 cell lines were thus generated: one with the codon as predicted from the genomic databases and another cell line with an engineered methionine (ATG) as the start codon. Additionally, stable cell lines expressing the human receptors were generated in HEK-293/aeq17 cells which stably express the aequorin gene under the CMV promoter. The human NMUR2 cDNA was cloned into pcDNA3.1 and human NMUR1 was subcloned into pIRES-puro (Clontech, Mountain View, Calif.), after transfection cells were selected in media containing G418 and either hygromycin (NMUR2) or puromycin (NMUR1).
(§2) The NMU receptors signal primarily through Gαq/11 proteins; therefore calcium mobilization assays can be utilized for functional activity.
(§3) Stable cell lines expressing human and or rodent NMUR1 or human NMUR2 receptors were plated at a density of 12,000 cells per well overnight on poly-lysine coated 384-well black-walled plates. The following day, the media was removed from the plates and the cells were subsequently loaded with Fluo-3 (Molecular Probes), a calcium sensitive dye, diluted in FLIPR buffer (1× Hank's buffered saline containing 20 mM HEPES, 0.1% BSA, 2.5 mM probenecid (Sigma) and 1.6 mM TR40). All reagents are from Invitrogen unless otherwise noted. Peptide stocks were resuspended in DMSO at a stock concentration of 2 mM and diluted in FLIPR buffer on the day of the experiment to a 4 μM working stock solution.
(§4) After a 90 minute incubation at room-temperature, cell plates were loaded onto a FLIPR (Molecular Devices) to monitor cellular fluorescence (excitation=488 nm; emission=540 nm) before and after compound/peptide addition. Eight to twelve point dose responses were tested on NMUR-expressing cell lines using FLIPR with 1 μM peptide as the highest dose. The response after peptide addition was taken as the maximum fluorescence units minus the fluorescence immediately prior to stimulation for each well. EC50 values were calculated using GraphPad Prism (San Diego, Calif.) software.
(§5) In vitro responses of Neuromedin U receptor agonists (NMU1 to NMU25) in the FLIPR assay for human (Table 3), mouse (Table 4) and rat (Table 5) NMUR1 and NMUR2. EC50s are reported in nM values. Percent activity refers to the maximum response at 1 μM compared to the hNMU-25 response at the same concentration. NT=not tested.
On the technique in general: Calcium flux is commonly read through the fluorescence of an indicator in the cells.

The next series has as its target T1, hNMUR1 (Homo sapiens, UniProt Q9HB89).
T1 sequence (Q9HB89 1-426): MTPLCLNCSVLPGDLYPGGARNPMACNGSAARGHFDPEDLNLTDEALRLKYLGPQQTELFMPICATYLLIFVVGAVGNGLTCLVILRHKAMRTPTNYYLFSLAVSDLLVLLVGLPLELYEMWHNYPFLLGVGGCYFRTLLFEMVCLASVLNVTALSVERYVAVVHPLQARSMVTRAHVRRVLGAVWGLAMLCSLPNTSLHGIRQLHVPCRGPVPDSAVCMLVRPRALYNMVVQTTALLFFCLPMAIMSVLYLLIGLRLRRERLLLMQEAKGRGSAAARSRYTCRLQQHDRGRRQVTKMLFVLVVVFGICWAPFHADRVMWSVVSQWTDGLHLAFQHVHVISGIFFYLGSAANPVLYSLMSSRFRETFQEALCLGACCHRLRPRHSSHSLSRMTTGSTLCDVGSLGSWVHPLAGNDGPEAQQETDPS
The experiment in a line: FLIPR calcium mobilization assay, human NMUR1. Also noted: expressed in transfected cells; host or cells: FLP-In CHO or HEK-293 FLP-In cells (pcDNA5); HEK-293/aeq17 lines (pIRES-puro) were also made. The note with it: human NMUR1. Format: cell-based.
From the text: as §1, §2, §3, §4, §5

Entries after “also recorded” stand apart in the source; their conditions may differ. Non-standard residues stand in square brackets, D forms with d. (PEG)2 40 kDa = branched PEG of 40 kDa linked via the Cys side-chain thiol (code C2 = Cys(PEG)2 40 kDa)

hNMUR2, sequence (Q9GZQ4 whole entry): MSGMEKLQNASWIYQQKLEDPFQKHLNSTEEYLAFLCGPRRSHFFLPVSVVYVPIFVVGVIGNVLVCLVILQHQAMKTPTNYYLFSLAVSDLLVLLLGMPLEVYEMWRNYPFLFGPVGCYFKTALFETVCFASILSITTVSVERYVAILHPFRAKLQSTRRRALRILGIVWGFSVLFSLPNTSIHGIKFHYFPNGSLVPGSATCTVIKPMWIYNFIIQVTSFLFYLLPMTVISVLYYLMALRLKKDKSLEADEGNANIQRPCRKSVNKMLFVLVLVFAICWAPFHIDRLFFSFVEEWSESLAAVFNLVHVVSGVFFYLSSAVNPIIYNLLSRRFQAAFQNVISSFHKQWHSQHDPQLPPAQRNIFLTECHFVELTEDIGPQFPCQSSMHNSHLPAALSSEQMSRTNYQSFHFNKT

Regarding “Ac-C2-Ttds-FLFRPRN-CONH2 (Ac-CFLFRPRN-NH2; not fully specified (residue 1); printed as Ac-C2-Ttds-FLFRPRN-CONH2) [NMU16, C2 = Cys(PEG)240 kDa]”, in the series on diet-induced obese mice (10 mg/kg), the “Body weight (BW) change (in grams) {relative to vehicle} Day 1” value is −0.3 grams and the “% Food intake (FI) reductions Day 1” value is given as 11%. Moreover, in the series with diet-induced obese mice (30 mg/kg), the “Body weight (BW) change (in grams) {relative to vehicle} Day 1” value is listed as −0.9 grams and the “% Food intake (FI) reductions Day 1” value is recorded as 25%.

Take “Ac-C2ASQSRGYFLFRPRN-CONH2 (Ac-C((PEG)2 40 kDa)ASQSRGYFLFRPRN-NH2) [NMU18, C2 = Cys(PEG)240 kDa]”: the “extension of serum half-life by PEGylation” value in the series on diet-induced obese mice is “two days”. Besides, in the series with diet-induced obese mice (10 mg/kg), the “Body weight (BW) change (in grams) {relative to vehicle} Day 1” value is −2.6 grams, the “% Food intake (FI) reductions Day 1” value is 71%, the “Body weight (BW) change (in grams) {relative to vehicle} Day 2” value is given as −0.2 grams and the “% Food intake (FI) reductions Day 2” value stood at 40%.

As to “Ac-C2FRVDEEFQSPFASQSRGYFLFRPRN-CONH2 [NMU12] (Ac-C((PEG)2 40 kDa)FRVDEEFQSPFASQSRGYFLFRPRN-NH2)”, the “half-life in human plasma” value was “greater than three days”. Also, the “metabolic stability in vivo (plasma exposure)” value in series [1] is reported as “greater metabolic stability in vivo”. Besides, in the series on diet-induced obese mice (10 mg/kg), the “Body weight (BW) change (in grams) {relative to vehicle} Day 1” value is on record as −1.8 grams, the “% Food intake (FI) reductions Day 1” value stood at 51%, the “Body weight (BW) change (in grams) {relative to vehicle} Day 2” value is recorded as −1.3 grams and the “% Food intake (FI) reductions Day 2” value is listed as 50%. In addition, in the series with diet-induced obese mice (10 mg/kg), the “Body weight (BW) change (in grams) {relative to vehicle} Day 3” value is reported as −0.2 grams and the “% Food intake (FI) reductions Day 3” value amounted to 15%. In addition, the “duration of reductions in food intake and body weight” value in the series with diet-induced obese mice (NMUR1 knockout animals) is listed as “two days post dose”. The “duration of reductions in food intake and body weight” value in the series with diet-induced obese mice (NMUR2 knockout animals) is “only overnight effects”. The anorectic effect result with diet-induced obese mice (NMUR1/NMUR2 double knockout animals) is reported as “no effect was observed”. Besides, the anorectic effect result in the series with diet-induced obese mice (wild-type animals) is recorded as “highly efficacious”. Besides, in the series with diet-induced obese mice (chronic administration QD, Q2D or Q3D), the “cumulative food intake reduction relative to the vehicle treated group” value is listed as 12-27%. The food intake result in the series on diet-induced obese mice (peripheral administration, Nmur1 knockout mice) is recorded as “able to reduce food intake”. Besides, the “crossing the blood-brain barrier” value in the series with diet-induced obese mice (peripheral administration, inferred from knockout mice) is “capable of crossing the blood-brain barrier; also recorded: able to cross the blood-brain barrier”. Moreover, in the series with diet-induced obese mice, the body weight entry was “significant reduction” and the “duration of reductions in food intake” value is listed as “three days”.

With “Ac-C2FRVDEEFQSPFASQSRGYFaWRPRN-CONH2 (Ac-C((PEG)2 40 kDa)FRVDEEFQSPFASQSRGYF[dA]WRPRN-NH2) [NMU14, C2 = Cys(PEG)240 kDa; a = D-Alanine]”, the “Body weight (BW) change (in grams) {relative to vehicle} Day 1” value with diet-induced obese mice (50 mg/kg) was −0.1 grams.

For the substance “Ac-C2GYFLFRPRN-CONH2 ({Ac-C(PEG 40 kDa)}-GYFLFRPRN-NH2) [NMU7, C2 = Cys(PEG)240 kDa]”, the concentration giving a half-maximal response (EC50) (commonly the midpoint of the concentration-response curve) in the series with hNMUR2 (FLIPR) was 36.1 nM; with hNMUR1 (FLIPR), 79.6 nM. Besides, the “% Activity” value with hNMUR2 (maximum response at 1 μM compared to hNMU-25) is reported as 91.8%; with hNMUR1 (maximum response at 1 μM compared to hNMU-25 response at same concentration), 91.4%. Moreover, the “Body weight (BW) change (in grams) {relative to vehicle} Day 1” value in the series with diet-induced obese mice (10 mg/kg) was −1.7 grams. Besides, the “% Food intake (FI) reductions Day 1” value with diet-induced obese mice (10 mg/kg) is reported as 44%.

For the substance “Ac-C3FRVDEEFQSPFASQSRGYFLFRPRN-CONH2 (Ac-CFRVDEEFQSPFASQSRGYFLFRPRN-NH2; not fully specified (residue 1); printed as Ac-C3FRVDEEFQSPFASQSRGYFLFRPRN-CONH2) [NMU10, C3 = cysteine linked to cholesterol via the side-chain thiol]”, in the series with diet-induced obese mice (10 mg/kg), the “Body weight (BW) change (in grams) {relative to vehicle} Day 1” value is recorded as −1.2 grams and the “% Food intake (FI) reductions Day 1” value was determined as 24%.

Take “P1-FRVDEEFQSPFASQSRGYFLFRPRN-CONH2 ({branched PEG 40 kDa}-FRVDEEFQSPFASQSRGYFLFRPRN-NH2) [NMU1]”: the “half-life in human plasma” value is “greater than three days”. In addition, in the series on diet-induced obese mice, the “extension of serum half-life by PEGylation” value is on record as “three days”, the body weight result is listed as “Significant reductions in body weight” and the “duration of reductions in food intake” value is given as “three days post-dose”. For the same substance, in the series on diet-induced obese mice (10 mg/kg), the “Body weight (BW) change (in grams) {relative to vehicle} Day 1” value is listed as −1.4 grams, the “% Food intake (FI) reductions Day 1” value came out at 57%, the “Body weight (BW) change (in grams) {relative to vehicle} Day 2” value is recorded as −1.7 grams and the “% Food intake (FI) reductions Day 2” value came to 56%. Further, in the series on diet-induced obese mice (10 mg/kg), the “Body weight (BW) change (in grams) {relative to vehicle} Day 3” value was −0.4 grams and the “% Food intake (FI) reductions Day 3” value was 22%. Besides, in the series with diet-induced obese mice (acute subcutaneous administration), the “efficacy at reducing overnight food intake compared to hNMU-25” value was “greater efficacy”.
